From patent US10765644B2, “Methods for the treatment of hepatitis C” (priority 2015, dated 2020)

How the values were obtained:
[1] = system: HCV GT1B replicon; experiment: HCV replicon assay (antiviral, luciferase / qRT-PCR endpoint); type: cell-based, hepatitis C virus
Experimental: Stable HCV replicons of different genotypes may be used for anti-HCV evaluation.
The HCV replicon antiviral evaluation assay examined the effects of compounds at six serial dilutions. Human interferon alpha-2b (rIFNα-2b) and/or Sofosbuvir were included in each run as a positive control compound.
(§1) Briefly, the replicon cells were plated at 5,000 cells/well into 96-well plates that were dedicated for the analysis of cell numbers (cytotoxicity) or antiviral activity. On the following day, samples were diluted with assay media and added to the appropriate wells. Cells were processed 72 hours later when the cells were still sub-confluent. For the luciferase endpoint assay, HCV replicon levels were assessed as replicon-derived Luc activity. The concentration of drug that reduced cell viability was assessed by the fluorometric CytoTox-1 cell proliferation assay (Promega), (expressed as cell numbers). For the qRT-PCR/TaqMan assay, total RNA was extracted from the replicon cells using RNeasy 96 kit (Qiagen) according to the manufacturer's protocol. Real-time RTPCR/TaqMan assays were performed to measure copy numbers of the replicon RNA and cellular ribosomal RNA. Where applicable EC50 (concentration inhibiting HCV replicon by 50%), EC90 (concentration inhibiting HCV replicon by 90%), CC50 (concentration decreasing cell viability by 50%), CC90 (concentration decreasing cell viability by 90%) and SI (selectivity indices: CC50/EC50 and CC90/EC90) values were derived.

[2] = in vitro; type: cell-based; conditions: human
Experimental: (§2) Huh7.5 cells were grown in Dulbecco's modified essential media (DMEM), 10% fetal bovine serum (FBS), 1% penicillin-streptomycin (pen-strep), 1% Non-essential amino acids (NEAA) in a 5% CO2 incubator at 37° C. Huh7.5 cells were seeded at 1×10^4 cells per well into 96-well plates according to Southern Research Institute standard format. Test articles were serially diluted with DMEM plus 5% FBS. The diluted compound in the amount of 50 μl was mixed with equal volume of cell culture-derived HCV (HCVcc), then applied to appropriate wells in the plate. Human interferon alpha-2b (rIFNα-2b) and/or Sofosbuvir were included as a positive control. After 72 hr incubation at 37° C., the cells were lysed for measurement of luciferase activity using Renilla Luciferase Assay System (Promega) according to manufacturer's instruction. The number of cells in each well were determined by CytoTox-1 reagent (Promega). Test articles were tested at 6 serial dilutions in triplicate to derive, if applicable, EC50 and EC90 (concentration inhibiting HCVcc infectivity by 50% and 90%, respectively), CC50 (concentration decreasing cell viability by 50%) and SI (selectivity index: CC50/EC50) values (Table 1).

[3] = system: cell culture-derived HCV (HCVcc); experiment: microbe, parasite or virus in culture; type: cell-based, hepatitis C virus
Experimental: as §2

[4] = HCV replicon assay, cytotoxicity (CytoTox-1 cell proliferation assay); type: cell-based; conditions: HCV replicon cells, In vitro HCV replicon assay, post infection, read-out: CC50 (concentration decreasing cell viability by 50%)
Experimental: as §1

CC[C@H](c1ccc(O)cc1)[C@@H](CC)c1ccc(O)cc1 [Hexestrol, meso 3,4-bis(4-hydroxyphenyl)hexane]
anti-Hepatitis C activity (in words) ([1]; HCV replicon assay): significant anti-Hepatitis C activity | EC50 ([1]; Hepatitis C virus, GT1B, 72 h, read-out: EC50 (concentration inhibiting HCV replicon by 50%)): 10.9 µM | Selectivity index (CC50/EC50) ([1]; In vitro HCV replicon assay): 2.51 | CC50 at 72 h [2]: 50.4 µM | anti-Hepatitis C activity (in words) ([3]; Hepatitis C viral infectivity assay): significant anti-Hepatitis C activity | EC50 ([3]; Hepatitis C virus, Huh7.5, 72 h, read-out: EC50 (concentration inhibiting HCVcc infectivity by 50%)): 2850 nM | Selectivity index (CC50/EC50) ([3]; In vitro HCVcc assay): 14.2 | CC50 at 72 h [4]: 27.4 µM
